Experimental data from publication doi:10.1101/2022.03.24.485529v3, “Distinct bile salt hydrolase substrate preferences dictate C. difficile pathogenesis” (biorxiv, 2022).

Assays:
LgasBSHa = molecular target: T1, LgasBSHa (Lactobacillus gasseri, UniProt A0A805Z5R7); experiment: X-ray crystallography; format: binding; conditions: active site
T1 construct: gene bsh; heterologously expressed and purified; homotetramer, neighbouring monomer donates loop to active site
T1 sequence (A0A805Z5R7 2-316): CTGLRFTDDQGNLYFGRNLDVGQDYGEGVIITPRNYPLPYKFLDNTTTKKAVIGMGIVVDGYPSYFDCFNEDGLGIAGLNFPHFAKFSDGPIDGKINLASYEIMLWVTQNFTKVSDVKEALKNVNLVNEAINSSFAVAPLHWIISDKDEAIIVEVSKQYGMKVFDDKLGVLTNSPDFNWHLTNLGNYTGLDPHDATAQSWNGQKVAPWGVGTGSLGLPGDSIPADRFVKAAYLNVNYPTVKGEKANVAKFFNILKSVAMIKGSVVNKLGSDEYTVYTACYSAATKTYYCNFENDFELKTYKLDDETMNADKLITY

LingBSH = molecular target: T2, LingBSH (Limosilactobacillus ingluviei, UniProt A0A0R1U3N2); experiment: deconjugation of AA-CA pool by LC-IMS-MS; format: biochemical; conditions: pool of CA conjugated to 22 amino acids
T2 construct: gene FC43_GL000624; heterologously expressed and purified; homotetramer; species inferred from the abbreviation Ling
T2 sequence (A0A0R1U3N2 2-327): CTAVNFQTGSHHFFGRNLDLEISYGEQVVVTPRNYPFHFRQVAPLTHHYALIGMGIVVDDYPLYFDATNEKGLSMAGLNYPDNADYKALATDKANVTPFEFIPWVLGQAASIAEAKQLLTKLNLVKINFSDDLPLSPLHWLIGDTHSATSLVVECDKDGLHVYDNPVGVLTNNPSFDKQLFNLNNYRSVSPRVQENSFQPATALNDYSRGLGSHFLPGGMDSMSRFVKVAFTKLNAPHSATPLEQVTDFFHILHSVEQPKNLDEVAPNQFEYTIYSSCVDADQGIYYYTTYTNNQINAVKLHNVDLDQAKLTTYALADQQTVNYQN

Compound: C[C@H](CCC(=O)O)[C@H]1CC[C@H]2[C@@H]3[C@H](O)C[C@@H]4C[C@H](O)CC[C@]4(C)[C@H]3CC[C@]12C [CDCA]
- X-ray crystallography (LgasBSHa; ternary complex with taurine): LgasBSHa was resolved in complexes with taurine or taurine plus CDCA

Compound: C[C@H](CCC(=O)N[C@@H](CO)C(=O)O)[C@H]1CC[C@H]2[C@@H]3[C@H](O)C[C@@H]4C[C@H](O)CC[C@]4(C)[C@H]3C[C@H](O)[C@]12C [Ser-CA]
- % deconjugation after 5 minutes (LingBSH; also purified Ser-CA (enzyme not named in that sentence)): Ala and Ser-conjugated BAs are efficiently processed

Compound: NCCS(=O)(=O)O [taurine]
- X-ray crystallography (LgasBSHa; complexes with taurine alone and with taurine plus CDCA): LgasBSHa was resolved in complexes with taurine or taurine plus CDCA

Compound: C[C@H](NC(=O)CC[C@@H](C)[C@H]1CC[C@H]2[C@@H]3[C@H](O)C[C@@H]4C[C@H](O)CC[C@]4(C)[C@H]3C[C@H](O)[C@]12C)C(=O)O [Ala-CA]
- % deconjugation after 5 minutes (LingBSH; also purified Ala-CA (enzyme not named in that sentence)): Ala and Ser-conjugated BAs are efficiently processed
